Test results: US10342777B2, “Caffeoylquinic acid-rich extract and preparation as well as use thereof” (Macau University of Science and Technology, priority 2015, dated 2019)

Experiments:
[1] = system: myocardial I/R injury in rat heart; assay: Myocardial infarct size by TTC staining after ischemia/reperfusion; type: in vivo; settings: 5 mg/kg i.v. tail vein 1 min before reperfusion; positive control; vehicle 15.2±1.4%
Procedure: (§1) An ischemia reperfusion injury was produced in rat heart based on Buerke's description with our modifications (Buerke et al., Proc Natl Acad Sci USA, 1995, 92:8031-8035). Sixty rats were randomly divided into six groups (n=10 per group): (I) Sham group (given saline vehicle without I/R); (II) I/R group with saline alone; (Ill) I/R group with 10 mg/kg of the caffeoylquinic acid-rich extract of example 1; (IV) I/R group with 20 mg/kg of the caffeoylquinic acid-rich extract of example 1; (V) I/R group with 40 mg/kg of the caffeoylquinic acid-rich extract of example 1; […] The vehicle or drugs were administered 1 min before reperfusion via single bolus tail vein injection. […] Using a PowerLab (ADInstruments Pty Ltd., Castle Hill, Australia), mean aortic pressure (MAP) was recorded from the Millar catheter. Electrocardiogram (ECG) in lead II was also recorded through the needle electrodes attached to the limbs. The heart rate and ST-segment elevation were calculated off-line. […] The images of the slice were captured by a LEICA digital camera 480 and infarct area in each slice was measured by computed planimetry with an image analyzing program Image J1.26 (Wayne Rasband, National Institutes of Health, USA). Then the infarct area of each slice was determined by manual delineation of TTC-negative pale area of the image. […]

[2] = system: myocardial I/R injury in rat heart; assay: ECG (lead II) ST-segment depression and heart rate 24 h after I/R; type: in vivo; settings: 5 mg/kg; 24 h reperfusion
Procedure: as §1, with “Electrocardiogram (ECG) in lead II was recorded through” for “The images of”, “needle electrodes attached to the limbs continuously for 15 min” for “slice were captured by a LEICA digital camera 480 and infarct area in each slice was measured by computed planimetry”, “electrocardiograph (ASB240U, […], China). The heart rate and ST-segment depression were calculated off-line. […] The amplitude” for “image analyzing program Image J1.26 (Wayne Rasband, National Institutes”, “ST-segment and heart rate were recorded and used as” for “Health, USA). Then”, “index” for “infarct area”, “ischemic electrocardiograph changes.” for “each slice was determined by manual delineation of TTC-negative pale area of the image.”

[3] = system: Creatine kinase-MB (CK-MB); assay: Serum CK-MB activity 24 h after I/R (commercial kit); type: in vivo, rat; settings: 5 mg/kg, P<0.01
Procedure: (§2) An ischemia reperfusion injury was produced in rat heart based on Buerke's description with our modifications (Buerke et al., Proc Natl Acad Sci USA, 1995, 92:8031-8035). Sixty rats were randomly divided into six groups (n=10 per group): (I) Sham group (given saline vehicle without I/R); (II) I/R group with saline alone; (Ill) I/R group with 10 mg/kg of the caffeoylquinic acid-rich extract of example 1; (IV) I/R group with 20 mg/kg of the caffeoylquinic acid-rich extract of example 1; (V) I/R group with 40 mg/kg of the caffeoylquinic acid-rich extract of example 1; […] The vehicle or drugs were administered 1 min before reperfusion via single bolus tail vein injection. Rats were anesthetized with pentobarbital sodium (70 mg/kg body weight) by an i.p. injection of a mixture of 20% Dorminal (1 ml contains 200 mg pentobarbital sodium, Alfasan) and sterile saline at a ratio of 1:3 (VN). Using a PowerLab (ADInstruments Pty Ltd., Castle Hill, Australia), mean aortic pressure (MAP) was recorded from the Millar catheter. Electrocardiogram (ECG) in lead II was also recorded through the needle electrodes attached to the limbs. The heart rate and ST-segment elevation were calculated off-line. The chest was opened at the left fourth intercostal space. […] Activities of LDH and CK-MB were determined by using commercial assay kits according to manufacturer's instructions. […]

[4] = system: Lactate dehydrogenase (LDH); assay: Serum LDH activity 24 h after I/R (commercial kit); type: in vivo, rat; settings: 5 mg/kg, P<0.01
Procedure: as §2

[5] = system: TNF-α; assay: Cardiac tissue TNF-α level by ELISA 24 h after I/R; type: in vivo, rat; settings: 5 mg/kg
Procedure: (§3) An ischemia reperfusion injury was produced in rat heart based on Buerke's description with our modifications (Buerke et al., Proc Natl Acad Sci USA, 1995, 92:8031-8035). Sixty rats were randomly divided into six groups (n=10 per group): (I) Sham group (given saline vehicle without I/R); (II) I/R group with saline alone; (Ill) I/R group with 10 mg/kg of the caffeoylquinic acid-rich extract of example 1; (IV) I/R group with 20 mg/kg of the caffeoylquinic acid-rich extract of example 1; (V) I/R group with 40 mg/kg of the caffeoylquinic acid-rich extract of example 1; […] The vehicle or drugs were administered 1 min before reperfusion via single bolus tail vein injection. […] Using a PowerLab (ADInstruments Pty Ltd., Castle Hill, Australia), mean aortic pressure (MAP) was recorded from the Millar catheter. Electrocardiogram (ECG) in lead II was also recorded through the needle electrodes attached to the limbs. The heart rate and ST-segment elevation were calculated off-line. […] Levels of TNF-α and IL-6 were measured using ELISA kits for TNF-α (RayBiotech, Inc., Norcross Ga.) and IL-6 (R & D System). […] The contents of total protein in the supernatants were determined by using a Bio-Rad kit (Bio-Rad Laboratories, Hercules, Calif., USA). […] To determine the effect of a caffeoylquinic acid-rich extract on pro-inflammatory cytokines, cardiac tissue levels of TNF-α and IL-6 after I/R were evaluated.

[6] = system: IL-6; assay: Cardiac tissue IL-6 level by ELISA 24 h after I/R; type: in vivo, rat; settings: 5 mg/kg
Procedure: as §3

[7] = system: JNK; assay: Western blot of phospho-JNK in left ventricular tissue after I/R; type: in vivo, rat; settings: 5 mg/kg before reperfusion

O=C(/C=C/c1ccc(O)c(O)c1)OCCc1ccccc1 [CAPE, 2-phenylethyl (2E)-3-(3,4-dihydroxyphenyl)acrylate]
myocardial infarct size [1]: 7.9±0.9%
I/R-induced ST-segment depression [2]: significant protective effects
heart rate decrease after I/R [2]: slight effect without significant difference
serum CK-MB [3]: 913±40.2 U/L
serum LDH [4]: 287±18.8 U/L
cardiac tissue level of TNF-α [5]: markedly decreased
cardiac tissue level of IL-6 [6]: markedly decreased
JNK phosphorylation [7]: markedly reduced
